Experimental data as given in a compilation of properties of binary mixtures (doi:10.1021/je060126x).

Experiment: xn = mol fraction of the nth substance listed
Details: 298.15 K, 101 kPa

CCOS(=O)(=O)[O-].CC[n+]1ccn(C)c1 + CCO
speed of sound (x2 = 0.1271): 1657 m/s
viscosity (x2 = 0.1271): 65.5 mPa·s
speed of sound (x2 = 0.1281): 1655 m/s
viscosity (x2 = 0.1281): 66.1 mPa·s
speed of sound (x2 = 0.2039): 1636 m/s
viscosity (x2 = 0.2039): 49.8 mPa·s
speed of sound (x2 = 0.3088): 1603 m/s
viscosity (x2 = 0.3088): 34.69 mPa·s
speed of sound (x2 = 0.3256): 1598 m/s
viscosity (x2 = 0.3256): 32.21 mPa·s
speed of sound (x2 = 0.3598): 1586 m/s
viscosity (x2 = 0.3598): 28.75 mPa·s
speed of sound (x2 = 0.4147): 1566 m/s
viscosity (x2 = 0.4147): 22.88 mPa·s
speed of sound (x2 = 0.4336): 1558 m/s
viscosity (x2 = 0.4336): 21.39 mPa·s
speed of sound (x2 = 0.4604): 1545 m/s
viscosity (x2 = 0.4604): 18.98 mPa·s
speed of sound (x2 = 0.5103): 1525 m/s
viscosity (x2 = 0.5103): 15.4 mPa·s
speed of sound (x2 = 0.5223): 1516 m/s
viscosity (x2 = 0.5223): 14.78 mPa·s
speed of sound (x2 = 0.5724): 1490 m/s
viscosity (x2 = 0.5724): 11.74 mPa·s
speed of sound (x2 = 0.5926): 1480 m/s
viscosity (x2 = 0.5926): 10.83 mPa·s
speed of sound (x2 = 0.5951): 1467 m/s
viscosity (x2 = 0.5951): 10.65 mPa·s
speed of sound (x2 = 0.712): 1407 m/s
viscosity (x2 = 0.712): 6.13 mPa·s
speed of sound (x2 = 0.7174): 1406 m/s
viscosity (x2 = 0.7174): 5.98 mPa·s
speed of sound (x2 = 0.7676): 1369 m/s
viscosity (x2 = 0.7676): 4.68 mPa·s
speed of sound (x2 = 0.806): 1339 m/s
viscosity (x2 = 0.806): 3.86 mPa·s
speed of sound (x2 = 0.8666): 1286 m/s
viscosity (x2 = 0.8666): 2.709 mPa·s
speed of sound (x2 = 0.9026): 1253 m/s
viscosity (x2 = 0.9026): 2.189 mPa·s
speed of sound (x2 = 0.9062): 1248 m/s
viscosity (x2 = 0.9062): 2.138 mPa·s
speed of sound (x2 = 0.9504): 1202 m/s
viscosity (x2 = 0.9504): 1.628 mPa·s
speed of sound (x2 = 0.9522): 1200 m/s
viscosity (x2 = 0.9522): 1.589 mPa·s
